From ChEMBL document CHEMBL5625202, “Synthesis, characterization and anti-breast cancer activities of stachydrine derivatives” (Eur J Med Chem, 2023)
Calls of active or inactive are those of the source. The calls are words filed in the database; no cut-off is given here.

Legend:
[1] = Toxicity in BALB/c mouse implanted with mouse 4T1 cells assessed as increase in AST level at 0.2 mmol/Kg, po administered once every day for 14 days by routine blood analysis; assay type: organism-based; details: in vivo, 336 h, time 14 day
[2] = Toxicity in BALB/c mouse implanted with mouse 4T1 cells assessed as increase in neutrophil granulocytes at 0.2 mmol/Kg, po administered once every day for 14 days by routine blood analysis; assay type: organism-based; details: in vivo, 336 h, time 14 day
[3] = Toxicity in BALB/c mouse implanted with mouse 4T1 cells assessed as splenic edema at 0.2 mmol/Kg, po administered once every day for 14 days; assay type: organism-based; details: in vivo, 336 h, time 14 day
4T1 [4] = test: Induction of apoptosis in mouse 4T1 cells assessed as apoptotic rate at 5000 micromol/L incubated for 24 hrs by Annexin-V/PI staining based flow cytometry relative to control; assay type: functional; details: dose 5000 µmol/L, at 5000 µM
4T1 [5] = test: Antitumor activity against mouse 4T1 cells implanted in BALB/c mouse assessed as change in tumor weight at 0.2 mmol/Kg, po administered once every day for 14 days; assay type: functional, organism-based; details: time 14.0 day
[6] = Half life in Sprague-Dawley rat plasma at 10 mg/kg, iv measured upto 6 hrs by LC-MS/MS analysis; assay type: ADME, organism-based
4T1 [7] = test: Induction of apoptosis in mouse 4T1 cells assessed as apoptotic rate at 10000 micromol/L incubated for 24 hrs by Annexin-V/PI staining based flow cytometry relative to control; assay type: functional; details: dose 10000 µmol/L, at 10000 µM
4T1 [8] = test: Antitumor activity against mouse 4T1 cells implanted in BALB/c mouse assessed as tumor cell shrinkage at 0.2 mmol/Kg, po administered once every day for 14 days by histological staining based analysis; assay type: functional, organism-based; details: time 14.0 day
4T1 [9] = test: Inhibition of cell migration in mouse 4T1 cells assessed as reduction in wound healing incubated for 24 hrs by microscopic analysis; assay type: functional, cell-based
[10] = Tmax in Sprague-Dawley rat plasma at 10 mg/kg, iv measured upto 6 hrs by LC-MS/MS analysis; assay type: ADME, organism-based
[11] = Toxicity in BALB/c mouse implanted with mouse 4T1 cells assessed as increase in monocytes at 0.2 mmol/Kg, po administered once every day for 14 days by routine blood analysis; assay type: organism-based; details: in vivo, 336 h, time 14 day
[12] = Toxicity in BALB/c mouse implanted with mouse 4T1 cells assessed as increase in white blood cells at 0.2 mmol/Kg, po administered once every day for 14 days by routine blood analysis; assay type: organism-based; details: in vivo, 336 h, time 14 day
4T1 [13] = test: Antitumor activity against mouse 4T1 cells implanted in BALB/c mouse assessed as tumor growth inhibition at 0.2 mmol/Kg, po administered once every day for 14 days relative to control; assay type: functional; details: 4T1, 336 h, time 14 day, read-out: TGI
4T1 [14] = test: Induction of apoptosis in mouse 4T1 cells assessed as increase in pro-caspase-3 expression at 5 mM incubated for 24 hrs by Western blot analysis; assay type: functional, cell-based
4T1 [15] = test: Induction of apoptosis in mouse 4T1 cells assessed as increase in Bax expression at 5 mM incubated for 24 hrs by Western blot analysis; assay type: functional, cell-based
[16] = Toxicity in BALB/c mouse implanted with mouse 4T1 cells assessed as change in heart histopathology at 0.2 mmol/Kg, po administered once every day for 14 days; assay type: organism-based; details: in vivo, 336 h, time 14 day
[17] = Cmax in Sprague-Dawley rat plasma at 10 mg/kg, iv measured upto 6 hrs by LC-MS/MS analysis; assay type: ADME, organism-based
[18] = Oral bioavailability in Sprague-Dawley rat at 10 mg/kg measured upto 6 hrs by LC-MS/MS analysis; assay type: ADME, organism-based; details: in vivo
[19] = Toxicity in BALB/c mouse implanted with mouse 4T1 cells assessed as body weight loss at 0.2 mmol/Kg, po administered once daily for 14 days; assay type: organism-based; details: in vivo, 336 h, time 14 day
4T1 [20] = test: Induction of mitochondrial membrane potential loss in mouse 4T1 cells assessed as green fluorescence at 5000 uM incubated for 24 hrs by JC-1 staining based flow cytometric analysis (reference value: 11.7%); assay type: cell-based
[21] = Toxicity in BALB/c mouse implanted with mouse 4T1 cells assessed as increase in lymphocytes at 0.2 mmol/Kg, po administered once every day for 14 days by routine blood analysis; assay type: organism-based; details: in vivo, 336 h, time 14 day
[22] = Toxicity in BALB/c mouse implanted with mouse 4T1 cells assessed as change in kidney histopathology at 0.2 mmol/Kg, po administered once every day for 14 days; assay type: organism-based; details: in vivo, 336 h, time 14 day
4T1 [23] = test: Anticancer activity against mouse 4T1 cells assessed as inhibition of cell growth incubated for 24 hrs by CCK-8 assay; assay type: functional, cell-based; details: 4T1, 24 h
[24] = Toxicity in BALB/c mouse implanted with mouse 4T1 cells assessed as blurred spleen morphology at 0.2 mmol/Kg, po administered once every day for 14 days; assay type: organism-based; details: in vivo, 336 h, time 14 day
[25] = Toxicity in BALB/c mouse implanted with mouse 4T1 cells assessed as effect on CREA level at 0.2 mmol/Kg, po administered once every day for 14 days by routine blood analysis; assay type: organism-based; details: in vivo, 336 h, time 14 day
[26] = Toxicity in BALB/c mouse implanted with mouse 4T1 cells assessed as change in liver histopathology at 0.2 mmol/Kg, po administered once every day for 14 days; assay type: organism-based; details: in vivo, 336 h, time 14 day
[27] = Toxicity in BALB/c mouse implanted with mouse 4T1 cells assessed as change in lung histopathology at 0.2 mmol/Kg, po administered once every day for 14 days; assay type: organism-based; details: in vivo, 336 h, time 14 day
[28] = Toxicity in BALB/c mouse implanted with mouse 4T1 cells assessed as reduction in spleen index at 0.2 mmol/Kg, po administered once every day for 14 days relative to control; assay type: organism-based; details: in vivo, 336 h, time 14 day
4T1 [29] = test: Induction of apoptosis in mouse 4T1 cells assessed as apoptotic rate at 2500 micromol/L incubated for 24 hrs by Annexin-V/PI staining based flow cytometry relative to control; assay type: functional; details: dose 2500 µmol/L, at 2500 µM
[30] = Toxicity in BALB/c mouse implanted with mouse 4T1 cells assessed as effect on BUN level at 0.2 mmol/Kg, po administered once every day for 14 days by routine blood analysis; assay type: organism-based; details: in vivo, 336 h, time 14 day
[31] = Stability of the compound in Sprague-Dawley rat plasma at 10 mg/kg, po measured after 6 hrs by LC-MS/MS analysis; assay type: ADME, organism-based; details: in vivo
[32] = Toxicity in BALB/c mouse implanted with mouse 4T1 cells assessed as increase in ALT level at 0.2 mmol/Kg, po administered once every day for 14 days by routine blood analysis; assay type: organism-based; details: in vivo, 336 h, time 14 day
[33] = Toxicity in BALB/c mouse implanted with mouse 4T1 cells assessed as increase in splenic red pulp at 0.2 mmol/Kg, po administered once every day for 14 days; assay type: organism-based; details: in vivo, 336 h, time 14 day
4T1 [34] = test: Antitumor activity against mouse 4T1 cells implanted in BALB/c mouse assessed as tumor cell necrosis at 0.2 mmol/Kg, po administered once every day for 14 days by histological staining based analysis; assay type: functional, organism-based; details: time 14.0 day
[35] = AUC (0 to t) in Sprague-Dawley rat plasma at 10 mg/kg, iv measured upto 6 hrs by LC-MS/MS analysis; assay type: ADME, organism-based
4T1 [36] = test: Induction of apoptosis in mouse 4T1 cells assessed as increase in cleaved caspase-3 expression at 5 mM incubated for 24 hrs by Western blot analysis; assay type: functional, cell-based
4T1 [37] = test: Induction of apoptosis in mouse 4T1 cells assessed as decrease in Bcl-2 expression at 5 mM incubated for 24 hrs by Western blot analysis; assay type: functional, cell-based
4T1 [38] = test: Induction of mitochondrial membrane potential loss in mouse 4T1 cells assessed as red fluorescence at 5000 uM incubated for 24 hrs by JC-1 staining based flow cytometric analysis (Rvb= 87.9%); assay type: cell-based

C[N+]1(C)CCCC1C(=O)[O-] (stereo not drawn)
Activity [1]: Toxic | Activity [2]: Toxic | Activity [3]: Toxic | Activity (4T1 [4]): 28.09% | Activity (4T1 [5]): Active | half-life [6]: 69.6 min | Activity (4T1 [7]): 32.47% | Activity (4T1 [8]): Active | inhibition (4T1 [9]): Dose-Dependent Effect | Tmax [10]: 1.02 min | Activity [11]: Toxic | Activity [12]: Toxic | inhibition in vivo at 200 µmol/kg (4T1 [13]): 3.89% | Activity (4T1 [14]): inactive | Activity (4T1 [15]): Active | Activity [16]: Non-Toxic | Cmax [17]: 94.6 µg/mL | bioavailability [18]: 100% | Activity [19]: Toxic | Activity (4T1 [20]): 29.6% | Activity [21]: Toxic | Activity [22]: Non-Toxic | IC50 (4T1 [23]): 39 mM | Activity [24]: Toxic | Activity [25]: Non-Toxic | Activity [26]: Non-Toxic | Activity [27]: Non-Toxic | Activity [28]: Toxic | Activity (4T1 [29]): 20.38% | Activity [30]: Non-Toxic | Stability [31]: Unstable | Activity [32]: Toxic | Activity [33]: Toxic | Activity (4T1 [34]): Active | AUC(0-t) at 6 h [35]: 18500 ng·h/mL | Activity (4T1 [36]): inactive | Activity (4T1 [37]): Active | Activity (4T1 [38]): 70.4%
